Experiments:
THP1 cells = assay: Combination drug screening, Cell Titer Glo, THP1 cells; conditions: THP1 cells; for Excess HSA Score: sum score, 10 × 10 dataset, 48 hours;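 for all read-outs here: luminescence read out in 1536-well plates seeded with 500 THP1 cells per well, each drug spanning a 10-point concentration range in the combination matrix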
Source text: A smaller concentration indicates higher potency to synergize with Venetoclax. […] The numbers in each cell represent the % response (left) or the Delta Bliss score (right) at each given concentration combination.
A smaller concentration indicates higher potency to synergize with azacitidine. […] The numbers in each cell represent the % response (left) or the Delta Bliss score (right) at each given concentration combination.
(§1) This is a cell line that has the FLT3 ITD mutation but also the FLT3 D835Y kinase domain mutation. […] Excess HSA is a measure of synergy vs. additivity or antagonism, wherein a negative Excess HSA value is indicative of synergy.
Briefly, 10 nL of compounds were acoustically dispensed into 1536-well white polystyrene tissue culture-treated plates with an Echo 550 acoustic liquid handler (Labcyte). MOLM14 (D835Y) or THP1 cells were then added to compound-containing plates at a density of 500-cells/well in 5 μL of medium. A 10-point custom concentration range was used for all listed drugs. […] 48h post compound addition, 3 μL of Cell Titer Glo (Promega) were added to each well and plates were incubated at room temperature for 15 minutes with the stainless-steel lid in place. Luminescence readings were taken using a Viewlux imager (PerkinElmer) with a 2 second exposure time per plate.

MOLM14 (D835Y) cells = assay: Combination drug screening, Cell Titer Glo, MOLM14 (D835Y) cells; conditions: MOLM14(D835Y) cells; for Excess HSA Score: sum score, listed as compound in combination with Compound 106, 48 hours;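 for all read-outs here: MOLM14 cells with FLT3 ITD plus D835Y, 500 per well in 1536-well plates, 10-point dose ranges, luminescent viability after 48 h, negative Excess HSA indicates synergy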
Procedure: Briefly, 10 nL of the compound shown below was acoustically dispensed into 1536-well white polystyrene tissue culture-treated plates with an Echo 550 acoustic liquid handler (Labcyte). Cells were then added to compound-containing plate at a density of 500-cells/well in 5 μL of medium. A 6-point or 10-point custom concentration range was used for all listed drugs. Plates were incubated for 48 hours at standard incubator conditions covered by a stainless steel gasketed lid to prevent evaporation. 48h post compound addition, 3 μL of Cell Titer Glo (Promega) were added to each well and plates were incubated at room temperature for 15 minutes with the stainless-steel lid in place. Luminescence readings were taken using a Viewlux imager (PerkinElmer) with a 2 second exposure time per plate.
A smaller concentration indicates higher potency to synergize with Venetoclax.
A smaller concentration indicates higher potency to synergize with azacitidine.
as §1

[1] = listed as compound in combination with CG-806 (a FLT3/BTK inhibitor)
[2] = listed as compound in combination with Compound 45a
[3] = listed as compound in combination with Compound 46a
[4] = listed as compound in combination with Compound 47a
[5] = listed as compound in combination with Compound 48a
[6] = listed as compound in combination with Compound 102
[7] = listed as compound in combination with Compound 106
[8] = listed as compound in combination with Gilteritinib (a FLT3/AXL inhibitor)
[9] = listed as compound in combination with PF-06650833 (an IRAK4 selective inhibitor)
[10] = listed as compound in combination with Quizartinib (a FLT3/Kit/PDGFRa inhibitor)
[11] = listed as compound in combination with emavusertib (CA-4948) (a FLT3/IRAK4 inhibitor)
[12] = combination therapy of CG-806 (a FLT3/BTK inhibitor) and the named additional compound, 110 × 10 dataset
[13] = combination therapy of Compound 45a and the named additional compound, 110 × 10 dataset
[14] = combination therapy of Compound 46a and the named additional compound, 110 × 10 dataset
[15] = combination therapy of Compound 47a and the named additional compound, 110 × 10 dataset
[16] = combination therapy of Compound 48a and the named additional compound, 110 × 10 dataset
[17] = combination therapy of Compound 102 and the named additional compound, 10 × 10 dataset
[18] = combination therapy of Gilteritinib (a FLT3/AXL inhibitor) and the named additional compound, 110 × 10 dataset
[19] = combination therapy of PF-06650833 (an IRAK4 selective inhibitor) and the named additional compound, 110 × 10 dataset
[20] = combination therapy of Quizartinib (a FLT3/Kit/PDGFRa inhibitor) and the named additional compound, 110 × 10 dataset
[21] = combination therapy of emavusertib (CA-4948) (a FLT3/IRAK4 inhibitor) and the named additional compound, 110 × 10 dataset

| SMILES | Excess HSA Score (THP1 cells; [1]) | Excess HSA Score (THP1 cells; [2]) | Excess HSA Score (THP1 cells; [3]) | Excess HSA Score (THP1 cells; [4]) | Excess HSA Score (THP1 cells; [5]) | Excess HSA Score (THP1 cells; [6]) | Excess HSA Score (THP1 cells; [7]) | Excess HSA Score (THP1 cells; [8]) | Excess HSA Score (THP1 cells; [9]) | Excess HSA Score (THP1 cells; [10]) | Excess HSA Score (THP1 cells; [11]) | Sum Excess HSA Score (MOLM14 (D835Y) cells; [12]) | Sum Excess HSA Score (MOLM14 (D835Y) cells; [13]) | Sum Excess HSA Score (MOLM14 (D835Y) cells; [14]) | Sum Excess HSA Score (MOLM14 (D835Y) cells; [15]) | Sum Excess HSA Score (MOLM14 (D835Y) cells; [16]) | Sum Excess HSA Score (MOLM14 (D835Y) cells; [17]) | Sum Excess HSA Score (MOLM14 (D835Y) cells; [18]) | Sum Excess HSA Score (MOLM14 (D835Y) cells; [19]) | Sum Excess HSA Score (MOLM14 (D835Y) cells; [20]) | other results |
| --- | --- | --- | --- | --- | --- | --- | --- | --- | --- | --- | --- | --- | --- | --- | --- | --- | --- | --- | --- | --- | --- |
| COc1cc(F)ccc1-c1cc(Nc2cc(CS(C)(=N)=O)ccn2)ncc1F (single isomer, unassigned; (+)) [(+)-BAY-1251152, BAY1251152] | −199.4 | −860.7 | −263.4 | −21.17 | 97 | −265.1 | −427.1 | −656.6 | −758.9 | 454.7 | −51.35 | 1704 | −157.4 | −133.4976 | −727.7 | −215.2 | −20.6 | 362.2497 | −386 | −511.9 | Comments (THP1 cells; combination with PF-06650833): Synergistic (a negative Excess HSA value is indicative of synergy); Sum Excess HSA Score (MOLM14 (D835Y) cells; [21]): 274; Excess HSA Score (MOLM14 (D835Y) cells; 10 × 10 dataset): −865.6 |
| CC(C)[C@@H](CS(=O)(=O)C(C)C)N1C(=O)[C@@](C)(CC(=O)O)C[C@H](c2cccc(Cl)c2)[C@H]1c1ccc(Cl)cc1 [AMG-232, navtemadlin] | 917.1 | 441 | 229.7 | 364.2 | 420.6 | −171.2 | 394.3 | 24.49 | −179 | −91.44 | 125.5 | −536.7 | −165.5 | −654.7 | −325.2 | 224.1 | −197.3 | −113 | −1066 | −1109 | Sum Excess HSA Score (MOLM14 (D835Y) cells; [21]): −373.7; Excess HSA Score (MOLM14 (D835Y) cells; 10 × 10 dataset): −640.2 |
| CCN(C(=O)c1cc(F)ccc1Oc1cncnc1N1CC2(CCN(C[C@H]3CC[C@H](NS(=O)(=O)CC)CC3)CC2)C1)C(C)C [SNDX-5613] | 321.1921 | 434.8 | 262.8 | 247.1 | 138.2 | 156.4 | 375.4 | 306.1 | −120 | 413.2 | 468.5 | −1.886 | −24.88 | −263.9 | −358.8 | −804.1 | −748.9985 | 47.75 | −301.3 | −724.1 | Sum Excess HSA Score (MOLM14 (D835Y) cells; [21]): −321; Excess HSA Score (MOLM14 (D835Y) cells; 10 × 10 dataset): −210.8 |
| Nc1cccc2c1CN(C1CCC(=O)NC1=O)C2=O (stereo not shown) [Lenalidomide] | 534 | −245.1 | 533.2 | 188.9 | −51.13 | 12.2 | 386.8 | 355 | 74.4868 | 472.5204 | 1167 | 141.5 | 784.7 | 12.1 | 868.6 | 405.4 | 59.07 | 527.6728 | −429.8 | 565.7343 | Sum Excess HSA Score (MOLM14 (D835Y) cells; [21]): 390.3; Excess HSA Score (MOLM14 (D835Y) cells; 10 × 10 dataset): 754.6 |
| N#Cc1ccnc(N2C(=O)CC[C@H]2C(=O)N(c2cncc(F)c2)[C@H](C(=O)NC2CC(F)(F)C2)c2ccccc2Cl)c1 [Ivosidenib, ivosidenib] | 93.96 | −296.7 | −42.9834 | −122.1 | −0.4511 | −215.7606 | 354.6 | 338 | −152.4 | 177.8 | 285 | −199.6 | 259.8 | −118.7 | 218.5 | −299.6 | −713.3 | 347.6 | −172.4 | 244.1367 | Sum Excess HSA Score (MOLM14 (D835Y) cells; [21]): 35.12; Excess HSA Score (MOLM14 (D835Y) cells; 10 × 10 dataset): 28.0568 |
| C[C@@H]1OCC2(CCN(c3cnc(Sc4ccnc(N)c4Cl)c(N)n3)CC2)[C@@H]1N [TNO-155] | −198.4 | 64.74 | 591.7 | 207 | −3.87 | 485.0784 | −22.86 | 394.2 | −194.1 | 587.7 | 527.1 | −753.6 | −1028 | −1041.6332 | −1163 | −1024 | −510.7 | −895.7 | −773.7 | −1091 | Sum Excess HSA Score (MOLM14 (D835Y) cells; [21]): −470.2; Excess HSA Score (MOLM14 (D835Y) cells; 10 × 10 dataset): −943.9 |
| NC1(C(=O)N[C@@H](CCO)c2ccc(Cl)cc2)CCN(c2nc[nH]c3nccc2-3)CC1 [AZD-5363, capivasertib] | −189.8 | −1027.6539 | −276.8 | 124.8 | −732.6 | −198.6 | −134.3 | 989.6 | −649.7 | 17.2569 | −1144.9723 | −2332 | −239.9 | 637.8 | −894 | −939.6 | −439.3 | −966.8597 | 47.56 | −1637 | Comments (THP1 cells; combination with Compound 48a): Synergistic (a negative Excess HSA value is indicative of synergy); Comments (THP1 cells; combination with emavusertib (CA-4948)): Synergistic (a negative Excess HSA value is indicative of synergy); Comments (synergistic / antagonistic) (MOLM14 (D835Y) cells; [12]): Synergistic (a negative Excess HSA value is indicative of synergy); Sum Excess HSA Score (MOLM14 (D835Y) cells; [21]): −850.1; Excess HSA Score (MOLM14 (D835Y) cells; 10 × 10 dataset): −105.2 |
| CC(=O)c1c(C)c2cnc(Nc3ccc(N4CCNCC4)cn3)nc2n(C2CCCC2)c1=O [Palbociclib] | −368.3 | −912.2 | −907.6 | −166.9 | −166.7 | −116.5 | −590.5 | −826.9 | −610 | −794.7 | 190.2 | −246 | −715.3 | −844.8 | −616.3 | −583.3 | −537.2 | −576.9 | 94.98 | −1120 | Comments (THP1 cells; combination with Quizartinib): Synergistic (a negative Excess HSA value is indicative of synergy); Sum Excess HSA Score (MOLM14 (D835Y) cells; [21]): −557.8; Excess HSA Score (MOLM14 (D835Y) cells; 10 × 10 dataset): −252.8 |

Source: patent US20250368648A1, “MULTI-CYCLIC IRAK AND FLT3 INHIBITING COMPOUNDS AND USES THEREOF” (CHILDREN'S HOSPITAL MEDICAL CENTER, priority 2022, published 2025)
